From patent US11832638B2, “N-acyl derivatives of gamma amino-butyric acid and beta alanine as food flavouring compounds” (GIVAUDAN SA, priority 2012, dated 2023)

Assays:
[1] = Test in a strawberry yoghurt; settings: 2 ppm, 1.5% fat yoghurt, 8% sucrose, strawberry flavour 0.015%
Excerpt: Test in a Strawberry Yoghurt
Base: Yoghurt 1.5% fat yoghurt, 8% sucrose, proprietary strawberry flavour @ 0.015%

[2] = Strawberry flavoured sugar sweetened yoghurt; settings: 2 ppm, 1.5% fat yoghurt base, 8% sucrose, strawberry flavour 0.015%
Excerpt: Strawberry Flavoured Sugar Sweetened Yoghurt
The base consisted of a 1.5% fat yoghurt base, sweetened with 8% sucrose by weight, flavoured with a proprietary strawberry flavour @ 0.015%.

[3] = Test on Tang powdered soft drink; settings: 0.5 ppm, orange flavoured Tang
Description: In an orange flavoured Tang powdered soft drink (market product) sweetened with sucrose plus high intensity sweetener and containing citric acid and C18:2-gaba.
All samples were evaluated by expert tasters. Tasters were asked to describe the samples focusing on authentic taste, mouthfeel & body, enhancement, richness, juiciness, long lastingness, salivation, sweetness, masking off notes of high intensity sweetener
Base is Orange flavoured Tang

[4] = Test on Eru Prestige; settings: 0.5 ppm
[5] = Soy milk; settings: 2 ppm, 5% sucrose, milk flavor 0.1%
Description: In a soy milk sweetened with 5% sucrose by weight, flavoured with a proprietary milk flavour at a dosage of 0.1%, C18:2-gaba was added at 2 ppm
Samples were evaluated by expert tasters. Tasters were asked to describe the samples focusing on authentic taste , mouthfeel, fullness, salivation, sweetness, juiciness, richness, long lastingness and fattiness.

[6] = Tasting in spreadable cheese ERU; settings: 0.5 PPM in spreadable cheese ERU
Description: (§1) The following formulations were prepared and tasted by trained panelists.

[7] = Calve 60% reduced fat mayonnaise; settings: 0.5 ppm, Calve mayonnaise 60% reduced fat
Excerpt: Calve 60% Reduced Fat Mayonnaise
Base is Calve Mayonnaise 60% reduced fat (market Product)

[8] = Tasting in air expanded base with cheese seasoning; settings: air expanded base 3% fat
Description: Air Expanded Base An air expanded base (Rice, wheat, Tapioca, potato, salt, sugar, modified starch), containing 3% fat and flavored with cheese seasoning containing salt, MSG, dairy, organic acids, sugars and flavor. The following compounds were added to the base at the indicated levels and the tasting results are reported: […]

[9] = Tasting in soy based product (salt reduced kikoman soy sauce)
Description: as §1
Salt level pure product between 5-40%
Salt level in application 0.3-1.0%
C18:2-gaba-(0.5 ppm) was added to a 1% diluted salt reduced kikoman soy sauce (9% salt).
C18:2-gaba-(0.5 ppm) was added to pure salt reduced kikoman soy sauce (9% salt).

[10] = Comparison in beef bouillon; settings: 2 ppm, Maggi beef bouillon 1 tablet in 500 ml hot water
Description: Comparison in Beef Bouillon
Base is Maggi beef bouillon 1 tablet in 500 ml of hot water

[11] = Test in chocolate flavoured drink; settings: 2 ppm, water, 4% sucrose, chocolate flavour 0.03%
Excerpt: Test in Chocolate Flavoured Drink:
Base: Water, 4% sucrose, proprietary chocolate flavour at 0.03%

[12] = Test in pear flavoured drink; settings: 1 ppm, water, 7% sugar, 0.1% citric acid, pear flavour 0.025%
Excerpt: Test in Pear Flavoured Drink:
Base: water, 7% sugar, 0.1% citric acid, proprietary pear flavour at 0.025%

[13] = Vanilla flavoured milk 3.0% fat; settings: 2 ppm, 4% sugar, vanillin 10 ppm, vanilla extract 0.03%
Description: Vanilla Flavoured Milk 3.0% Fat
In a 3% fat milk drink, sweetened with 4% sucrose by weight, flavoured with Vaniline @ 10 ppm and a Vanilla extract @ 0.03% C18:2-gaba, was added at 0.5 or 2 ppm.
Samples were evaluated by expert tasters. Tasters were asked to describe the samples focusing on authentic taste, mouthfeel, fullness, salivation, sweetness, juiciness, richness, long lastingness and fattiness.
Base: Milk 3% fat, 4% sugar, vanillin 10 ppm, vanilla extract 0.03%

[14] = Tasting in cheese sauce; settings: 0.5 PPM in cheese sauce 5% fat 1.6% salt
Description: as §1
Cheese sauce: 5% fat 1.6% salt

[15] = Tasting in standard chicken bouillon base; settings: 0.5 PPM in standard chicken bouillon base, 0.7% salt, 0.5% fat
Description: as §1
Standard Chicken bouillon base, 0.7% salt, 0.5% fat

[16] = Tasting in low fat mayonnaise; settings: 0.5 ppm in low fat mayonnaise (27% fat)
Description: as §1
Fat levels between 10-80%
Low fat Mayonnaise (27% Fat)

[17] = Test on Breezer Orange; settings: 0.5 ppm
Description: Samples were evaluated by expert tasters. Tasters were asked to describe the samples focusing on authentic taste, alcohol impact, juiciness, mouthfeel, fullness, salivation, sweetness, bitterness, richness, long lastingness and fattiness.

[18] = Test on Baileys cream liqueur; settings: 1 ppm
Description: Test on Baileys Cream Liqueur:
In Baileys cream liqueur (Market Product) C18:2-gaba was added at 1 ppm.
Samples were evaluated by expert tasters. Tasters were asked to describe the samples focusing on authentic taste, alcohol impact, mouthfeel, fullness, salivation, sweetness, bitterness, richness, long lastingness and fattiness.
Base is Baileys cream liqueur

[19] = Tasting in low fat salad dressing; settings: 0.5 PPM in low fat salad dressing (13.6% fat)
Description: as §1
low fat salad dressing (13.6% Fat)

[20] = Test on organic acids in a beverage; settings: 1 ppm, water, 7% sucrose
Description: Testing With Beverages Containing Organic Acids From 0.01% to 7%
Test 18:2 Gaba on Organic Acids in a Beverage.
In a solution containing water, 7% sucrose by weight, and different organic acids, C18:2-gaba was added at 1 ppm. We observed taste effects on the acid perception upon addition of C18:2-gaba.
Base is water, 7% Sucrose by weight, Tartaric acid at 0.121% by weight
Base is water, 7% Sucrose by weight, Malic acid at 0.1081% by weight
Base is water, 7% Sucrose by weight, Citric acid at 0.1% by weight
Base is water, 7% Sucrose by weight, Fumaric acid at 0.0936% by weight

[21] = Test on Heineken beer; settings: 0.5 ppm
Description: In Heineken beer (Market Product) C18:2-gaba was added at 0.5 ppm.
Samples were evaluated by expert tasters. Tasters were asked to describe the samples focusing on authentic taste, alcohol impact, malt taste, hop taste, mouthfeel, fullness, salivation, sweetness, bitterness, richness, long lastingness and fattiness.

CCCCC/C=C\C/C=C\CCCCCCCC(=O)NCCCC(=O)O [C18:2-gaba]
taste description [1]: creamy, fruity authentic strawberry , stronger strawberry, ripe, long lasting, juicy | taste description [2]: very creamy and fresh strawberry | description by expert tasters [3]: enhances sweet juicy orange notes, enhanced mouthfeel. Additionally, the off-notes of the high intensity sweetener were suppressed | taste description [4]: full salty, much more cheese bite, umami, lingering, long lasting | description by expert tasters [5]: clean, creamy, good masking of the soy bean taste, creamy and milky | tasting result (trained panelists) [6]: Full, Salty, cheese bite, more mature | taste description [7]: full, rich , creamy, more egg yolk taste | tasting result ([8]; 0.5 ppm): Increased dairy, cheese | tasting result ([8]; 1 ppm): Fatty full, cheesy, cheese crust, long lasting, cover base | tasting result (trained panelists) ([9]; 0.5 ppm in 1% diluted salt reduced kikoman soy sauce (9% salt)): stronger, more umami, long lasting, richer | tasting result (trained panelists) ([9]; 0.5 ppm in pure salt reduced kikoman soy sauce (9% salt)): strong in body and mouthfeel,and more salty | taste description [10]: salty, savoury, full | taste description [11]: full, sweeter, more vanillic, milk chocolate is enhanced, very long lasting | taste description [12]: long lasting, juicy and fatty skin like very authentic, like eating the fruit instead of drinking a drink | description by expert tasters [13]: beany, fatty, authentic, sweet | tasting result (trained panelists) [14]: Full, Salty, cheese bite expanding | tasting result (trained panelists) [15]: Strong, Salty, Umami, mouthfeel | tasting result (trained panelists) [16]: creamy, thick mouthfeel with a full fat impression | description by expert tasters [17]: more alcoholic, sweeter, more juicy orange, less soapy | description by expert tasters [18]: strongly enhanced alcohol effect, more cocoa, very creamy and long lasting aftertaste | tasting result (trained panelists) [19]: better mouthfeel that was impressively creamy | taste effects on the acid perception ([20]; citric acid 0.1% by weight): decreased sharp acidic perception, full body mouthfeel, higher higher mouth watering, and an impression of the juicy notes of citrus fruit (orange, lemon) | taste effects on the acid perception ([20]; fumaric acid 0.0936% by weight): decreased sharp acidic perception, full body mouthfeel effects, higher sweet effects, and an impression of the full notes characteristic of sweet red & vanillic flavor types (vanilla, chocolate, raspberry, cherry, especially benzaldhyde) | taste effects on the acid perception ([20]; malic acid 0.1081% by weight): decreased sharp acidic perception, give fuller body, mouthfeel, higher mouthwatering, and an impression of the flesh and skin notes of fruit (apple) | taste effects on the acid perception ([20]; tartaric acid 0.121% by weight): decreased sharp acidic perception, full body mouthfeel, higher mouthwatering, more immediate (upfront hit), and an impression of the flesh of fruit (grape, apple, banana, pear-like) | description by expert tasters [21]: more hoppy, more bitter, more malt and stronger alcohol impact
